Measured values taken from ChEMBL document CHEMBL1201862, “PubChem BioAssay data set” (2004).
Activity calls are given as the source filed them.

How the values were obtained:
[1] = molecular target: T1, Delta-type opioid receptor (Homo sapiens, UniProt P41143); experiment: DOR agonists, SAR follow-up, image-based (AID 2370); type: functional
[2] = molecular target: T1, Delta-type opioid receptor; experiment: HTS Image-Based Screen for Agonists of the DOR Receptor. [Related pubchem assays (depositor defined):AID1777, AID1786, AID2133]; type: functional
[3] = molecular target: T2, Kappa-type opioid receptor (Homo sapiens, UniProt P41145); type: functional
Mu-type opioid receptor [4] = molecular target: T3, Mu-type opioid receptor (Homo sapiens, UniProt P35372); experiment: mu opioid receptor blockers – image-based, SAR follow-up (AID 2420); type: functional;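 further: compounds added before stimulation of receptor with agonist DAMGO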
Beta-galactosidase [5] = molecular target: T4, Beta-galactosidase (Escherichia coli, UniProt Q8VNN2); type: functional
[6] = molecular target: T1, Delta-type opioid receptor; experiment: delta opioid receptor blockers – image-based, SAR follow-up (AID 2357); type: functional
[7] = molecular target: T1, Delta-type opioid receptor; experiment: HTS Image-Based Screen for Antagonists of the DOR Receptor. [Related pubchem assays (depositor defined):AID1777, AID1785, AID1786, AID2133]; type: functional
[8] = molecular target: T2, Kappa-type opioid receptor; experiment: kappa opioid receptor blockers, image-based, SAR follow-up (AID 2348); type: functional
[9] = molecular target: T2, Kappa-type opioid receptor; experiment: kappa opioid receptor blockers, cell-based, luminescence, beta-arrestin, SAR follow-up (AID 2285); type: functional
[10] = molecular target: T2, Kappa-type opioid receptor; type: functional; remark: listed apart in the source
Mu-type opioid receptor [11] = molecular target: T3, Mu-type opioid receptor; experiment: HTS Image-Based Screen for Agonists of the MOR Receptor. [Related pubchem assays (depositor defined):AID1777, AID1785, AID1786, AID2133]; type: functional
Mu-type opioid receptor [12] = molecular target: T3, Mu-type opioid receptor; experiment: mu opioid receptor activators, image-based, SAR follow-up (AID 2352); type: functional
[13] = molecular target: T2, Kappa-type opioid receptor; experiment: kappa opioid receptor activation potency – imaging, image-based, SAR follow-up (AID 2359); type: functional
[14] = NIH3T3 cell viability loss – ATP luminescence, mouse fibroblasts, counter-screen, dose response (AID 2010); type: functional, cell-based;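 further: cells exposed to compound for about 90 hours before reading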
Hexokinase HKDC1 = molecular target: T5, Hexokinase HKDC1 (Homo sapiens, UniProt Q2TB90); experiment: activation of HKDC1 glucose phosphorylation – biochemical, W721R variant, dose response (AID 504730); type: functional
T5 sequence (Q2TB90 whole entry): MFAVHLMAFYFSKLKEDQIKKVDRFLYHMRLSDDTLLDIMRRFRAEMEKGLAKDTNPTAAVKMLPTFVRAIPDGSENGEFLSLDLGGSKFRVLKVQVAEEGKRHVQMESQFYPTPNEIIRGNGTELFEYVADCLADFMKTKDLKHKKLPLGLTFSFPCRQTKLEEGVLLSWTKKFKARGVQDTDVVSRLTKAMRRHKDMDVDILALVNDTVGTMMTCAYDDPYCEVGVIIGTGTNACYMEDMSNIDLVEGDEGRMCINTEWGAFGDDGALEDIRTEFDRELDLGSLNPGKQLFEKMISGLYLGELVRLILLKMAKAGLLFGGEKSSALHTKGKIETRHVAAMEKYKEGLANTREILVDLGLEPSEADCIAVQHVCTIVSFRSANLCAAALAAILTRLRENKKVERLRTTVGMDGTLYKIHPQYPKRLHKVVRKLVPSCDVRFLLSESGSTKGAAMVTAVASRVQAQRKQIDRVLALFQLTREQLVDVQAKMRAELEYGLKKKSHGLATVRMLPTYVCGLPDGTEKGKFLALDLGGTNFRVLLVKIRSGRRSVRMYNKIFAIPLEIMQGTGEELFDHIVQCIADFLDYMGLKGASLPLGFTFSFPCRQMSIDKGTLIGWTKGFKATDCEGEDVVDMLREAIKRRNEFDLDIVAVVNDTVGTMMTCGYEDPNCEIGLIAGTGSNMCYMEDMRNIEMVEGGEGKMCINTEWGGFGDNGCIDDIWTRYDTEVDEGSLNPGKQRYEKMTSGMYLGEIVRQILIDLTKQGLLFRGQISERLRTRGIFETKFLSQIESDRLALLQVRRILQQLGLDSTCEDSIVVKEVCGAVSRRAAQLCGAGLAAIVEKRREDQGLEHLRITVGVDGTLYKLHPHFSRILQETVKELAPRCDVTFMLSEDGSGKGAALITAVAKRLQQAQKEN

[15] = decrease of insulin promoter-GFP reporter – imaging, high-content screening, mouse beta cells (AID 1628); type: functional; details: MIN6
Beta-galactosidase [16] = molecular target: T4, Beta-galactosidase; experiment: PubChem AID 485352; type: functional
[17] = molecular target: T6, Type-1 angiotensin II receptor (Homo sapiens, UniProt P30556); experiment: antagonism of angiotensin II type 1 receptor – cell-based, uHTS hits, selectivity assay for APJ receptor antagonist project, dose response (AID 463214); type: functional;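 further: antagonist potency against angiotensin II stimulated AT1 response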
T6 sequence (P30556 whole entry): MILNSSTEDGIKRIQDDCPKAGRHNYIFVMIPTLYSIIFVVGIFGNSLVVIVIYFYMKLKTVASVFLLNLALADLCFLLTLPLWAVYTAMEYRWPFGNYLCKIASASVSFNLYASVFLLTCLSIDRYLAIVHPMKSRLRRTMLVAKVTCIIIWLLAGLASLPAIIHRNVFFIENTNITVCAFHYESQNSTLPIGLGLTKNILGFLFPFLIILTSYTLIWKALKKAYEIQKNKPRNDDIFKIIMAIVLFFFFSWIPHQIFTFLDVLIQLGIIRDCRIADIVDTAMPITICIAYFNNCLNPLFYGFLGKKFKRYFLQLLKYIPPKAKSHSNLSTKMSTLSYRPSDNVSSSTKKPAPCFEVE

[18] = MIN6 cell viability loss – mouse insulinoma, cytotoxicity control, dose response (AID 2122); type: functional;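 further: confirmatory high-throughput counterscreen run to flag cytotoxic compounds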
[19] = Trypanosoma cruzi growth suppression in host cells – NIH3T3 host cells, beta-gal luminescence, confirmation (AID 2044); type: functional, cell-based;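 further: intracellular parasites grown in NIH/3T3 mouse fibroblasts as host cells; luminescent beta-galactosidase reporter signal from transgenic T. cruzi replicating inside host cells; inhibitors lower the luminescence signal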
Hexokinase-1 = Hexokinase-1 (Homo sapiens, UniProt P19367); experiment: HK1 enzyme activation by HKDC1 hits – biochemical, selectivity assay for HKDC1 activator project, dose response (AID 504762); type: functional
[20] = molecular target: Dual specificity protein phosphatase 6 (Rattus norvegicus, UniProt Q64346); experiment: inhibition of rat DUSP6 enzyme activity – biochemical, in vitro, primary screen (AID 425)
[21] = molecular target: T7, Dual specificity protein phosphatase 3 (Homo sapiens, UniProt P51452); experiment: VHR1 phosphatase inhibitors, primary screen, biochemical, absorbance, uHTS (AID 1654)
[22] = molecular target: Induced myeloid leukemia cell differentiation protein Mcl-1 (Homo sapiens, UniProt Q07820); type: functional
[23] = molecular target: T7, Dual specificity protein phosphatase 3; experiment: VHR1 phosphatase inhibitors, biochemical (AID 1878)
Troponin, cardiac muscle = Troponin, cardiac muscle (Homo sapiens, UniProt P19429+P45379+P63316); experiment: Fluorescence-based biochemical high throughput dose response assay for activators of the calcium sensitivity of cardiac Regulated Thin Filaments (RTF). [Related pubchem assays (depositor defined):AID493008, AID493018, AID504382, AID504383]; type: protein-complex assay
[24] = molecular target: T8, Runt-related transcription factor 1/Core-binding factor subunit beta (Homo sapiens, UniProt Q01196+Q13951); experiment: disruptors of Runt domain/CBFb-SMMHC interaction – biochemical, FRET, Cerulean-Runt, Venus-CBFb-SMMHC, uHTS, […] (AID 1434); type: protein assay
[25] = molecular target: T9, RNA-binding protein pos-1 (Caenorhabditis elegans, UniProt G5EF15); experiment: disruptors of C. elegans POS-1 RNA interaction – biochemical, fluorescence polarization, dose response (AID 1964);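 further: purified POS-1 fused to maltose binding protein made in E. coli; potency of compounds blocking POS-1 binding to fluorescent RNA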
T9 sequence (G5EF15 whole entry): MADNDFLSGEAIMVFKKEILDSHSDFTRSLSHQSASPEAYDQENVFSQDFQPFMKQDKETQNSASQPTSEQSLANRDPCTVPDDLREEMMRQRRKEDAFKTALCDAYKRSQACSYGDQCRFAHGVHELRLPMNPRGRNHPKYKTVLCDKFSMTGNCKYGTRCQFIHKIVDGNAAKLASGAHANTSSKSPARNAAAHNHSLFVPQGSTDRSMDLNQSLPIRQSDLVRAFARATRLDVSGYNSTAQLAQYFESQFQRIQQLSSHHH

[26] = molecular target: T8, Runt-related transcription factor 1/Core-binding factor subunit beta; experiment: Runt domain/CBFb-SMMHC interaction disruptors – biochemical, TR-FRET (AID 1438); type: protein assay
[27] = molecular target: T10, Zinc finger protein mex-5 (Caenorhabditis elegans, UniProt Q9XUB2); experiment: potency of MEX-5 RNA-binding blockers – biochemical, C. elegans, fluorescence polarization, dose response (AID 1960)
T10 sequence (Q9XUB2 whole entry): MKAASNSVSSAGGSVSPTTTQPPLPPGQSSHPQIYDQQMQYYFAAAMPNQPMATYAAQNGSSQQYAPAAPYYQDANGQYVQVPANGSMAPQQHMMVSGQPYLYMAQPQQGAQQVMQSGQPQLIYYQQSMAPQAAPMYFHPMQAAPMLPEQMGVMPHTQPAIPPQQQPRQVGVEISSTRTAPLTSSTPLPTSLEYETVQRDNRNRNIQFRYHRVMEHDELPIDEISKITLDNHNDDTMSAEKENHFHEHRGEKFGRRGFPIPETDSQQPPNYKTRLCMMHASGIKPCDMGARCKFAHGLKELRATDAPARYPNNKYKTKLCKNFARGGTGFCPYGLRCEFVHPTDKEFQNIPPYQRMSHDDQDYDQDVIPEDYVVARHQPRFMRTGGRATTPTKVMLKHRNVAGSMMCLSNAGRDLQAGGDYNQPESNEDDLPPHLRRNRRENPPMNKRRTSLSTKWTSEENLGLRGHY

INS1 = experiment: INS-1E survival protection against cytokine death – cell-based, luminescence, retest, dose response (AID 449756); type: functional; details: Rattus norvegicus;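 further: cell death triggered by IL-1 beta plus TNF-alpha plus IFN-gamma mixture; protective hits raise ATP signal compared with cytokine alone wells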
Streptococcus = experiment: GAS UMAA2166 growth inhibition – luminescence, BacTiterGlo, counter-screen for streptokinase expression inhibitor project, dose response (AID 1915); type: functional, organism-based;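 further: potency for reduction of bacterial viability or growth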
cells [28] = type: functional, cell-based
[29] = tested on: Streptococcus sp. 'group A'; experiment: Streptococcus pyogenes SK(-)GAS viability under kanamycin – luminescence, BacTiterGlo, confirmation, counter-screen for streptokinase expression inhibitor project, dose response (AID 1900); type: functional, organism-based
cells [30] = type: functional, cell-based; remark: listed apart in the source
Albumin = Albumin (Bos taurus, UniProt P02769); experiment: Counterscreen for inhibitors of T-cell receptor (TCR)-CD3 interaction: Fluorescence-based biochemical high throughput dose response assay to identify inhibitors of T-cell receptor (TCR)-CD3 interaction using a TAMRA-labeled BSA probe.; type: functional
SUMO-activating enzyme [31] = molecular target: T11, SUMO-activating enzyme (Homo sapiens, UniProt Q9UBT2); experiment: blockers of SAE1/SAE2–UBC9 SUMO transfer – biochemical, HTRF, uHTS, primary screen (AID 2006); type: protein-complex assay
SUMO-activating enzyme [32] = molecular target: T11, SUMO-activating enzyme; experiment: blockers of UBC9-mediated SUMO conjugation – biochemical, AlphaScreen, SUMOylation inhibitor project, confirmation (AID 2018); type: functional
[33] = Luminescence Cell-Based Dose Retest to Confirm Inhibitors of Cancer Stem Cells. [Related pubchem assays (depositor defined):AID2717, AID2721]; type: functional; details: Homo sapiens

## CCOc1ccc(C(=O)NC2CC3CCCC(C2)N3Cc2ccccc2)cc1 (centres undefined)
[1]
  EC50: > 32 µM (inactive)
[2]
  EC50: > 32 µM (inactive)
[3]
  IC50: 7.52 µM (active)
Mu-type opioid receptor [4]
  IC50: > 32 µM (inactive)
Beta-galactosidase [5]
  EC50: > 31.5 µM (inactive)
[6]
  IC50: > 32 µM (inactive)
[7]
  IC50: > 32 µM (inactive)
[8]
  IC50: > 32 µM (inactive)
[9]
  IC50: > 10 µM (inactive)
[10]
  IC50: 14.8 µM
Mu-type opioid receptor [11]
  EC50: > 32 µM (inactive)
Mu-type opioid receptor [12]
  EC50: > 32 µM (inactive)
[13]
  EC50: > 32 µM (inactive)

## Cc1ccc(N=Nc2ccc(O)c3ncccc23)cc1C
[14]
  EC50: > 60 µM (inconclusive)
Hexokinase HKDC1
  EC50: 21.7 µM (inactive)
[15]
  IC50: 2.41 µM (active)
Beta-galactosidase [16]
  EC50: > 40 µM (inactive)
[17]
  IC50: 35.3 µM (not active)
[18]
  IC50: 1.66 µM (active)
[19]
  EC50: 1.13 µM (active)
Hexokinase-1
  EC50: > 80 µM (inactive)

## Cc1cc2nc(-c3ccc(SCc4ccc(C(=O)O)cc4)nc3)[nH]c2cc1C
[20]
  IC50: 25.8 µM (active)
[21]
  IC50: 13.9 µM (active)
[22]
  IC50: 7.97 µM (active)
[23]
  IC50: 5.73 µM (active)

## CC(=O)c1ccc2cccc3c2c1NC(C)=N3
Troponin, cardiac muscle
  EC50: 17.3 µM (inactive)
[24]
  IC50: 3.05 µM (active)
[25]
  EC50: 9.79 µM (active)
[26]
  IC50: > 100 µM (inactive)
[27]
  EC50: 6.57 µM (active)

## O=c1c2ccccc2nc(COc2ccccc2)n1/N=C/c1cc([N+](=O)[O-])ccc1O
INS1
  AC50: 3.74 µM (active)
Streptococcus
  EC50: 4.65 µM (active)
Cells [28]
  EC50: 24.3 µM (active)
[29]
  EC50: 5.71 µM (active)
Cells [30]
  EC50: 22.8 µM (active)
Albumin
  IC50: > 94.1 µM (inactive)
SUMO-activating enzyme [31]
  IC50: 32.1 µM (active)
SUMO-activating enzyme [32]
  IC50: 0.99 µM (active)
[33]
  AC50: 10.2 µM (active)
